In patent US7138361B2, “Herbicidal heterocycles” (E. I. du Pont de Nemours and Company, priority 2000, dated 2006):

What was measured:
Assay type in all cases: in vivo
[1] = tested on: barnyardgrass (Echinochloa crus-galli); test: Test B preemergence
How it was run: (§1)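 Ratings on a 0 to 100 visual scale (100 complete control) compare treated plants with controls 13 to 15 days after application. Treatments were pre- or postemergence sprays of compound in non-phytotoxic solvent with surfactant.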

[2] = tested on: giant foxtail (Setaria faberii); test: Test B preemergence
How it was run: as §1

[3] = tested on: morning glory (Ipomoea hederacea); test: Test B preemergence
How it was run: as §1

[4] = tested on: pigweed (Amaranthus retroflexus); test: Test B preemergence
How it was run: as §1

[5] = tested on: Surinam grass (Brachiaria decumbens); test: Test B preemergence
How it was run: as §1

corn (Zea mays) [6] = test: Test B preemergence
How it was run: as §1

[7] = tested on: velvetleaf (Abutilon theophrasti); test: Test B preemergence; conditions: Preemergence, Rate 500 g/ha; scale 0 to 100, 0 no effect, 100 complete control
How it was run: as §1

[8] = tested on: cocklebur (Xanthium strumarium); test: Test B preemergence
How it was run: as §1

[9] = tested on: crabgrass (Digitaria sanguinalis); test: Test B preemergence
How it was run: as §1

rice (Oryza saliva) [10] = test: Test B preemergence
How it was run: as §1

[11] = tested on: lambsquarters (Chenopodium album); test: Test B preemergence
How it was run: as §1

[12] = tested on: barnyardgrass (Echinochloa crus-galli); test: Test C flooded paddy test; conditions: for Barnyardgrass plant response rating: Flooded Paddy, scale 0 to 100, 0 no effect, 100 complete control; for Plant response rating, Barnyardgrass: flooded paddy test, scale 0 to 100 (0 no effect, 100 complete control)
How it was run: (§2)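 Visual ratings (0 = no effect, 100 = complete control) were made 12–14 days after treatment, relative to greenhouse controls. Plants in the flooded paddy test were rice, smallflower flatsedge, duck salad and barnyardgrass, treated at the 2-leaf stage.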

[13] = tested on: smallflower flatsedge (Cyperus difformis); test: Test C flooded paddy test; conditions: for Flatsedge plant response rating: Flooded Paddy, scale 0 to 100, 0 no effect, 100 complete control; for Plant response rating, Flatsedge: flooded paddy test, scale 0 to 100 (0 no effect, 100 complete control)
How it was run: as §2

[14] = tested on: duck salad (Heteranthera limosa); test: Test C flooded paddy test; conditions: for Ducksalad plant response rating: Flooded Paddy, scale 0 to 100, 0 no effect, 100 complete control; for Plant response rating, Ducksalad: flooded paddy test, scale 0 to 100 (0 no effect, 100 complete control)
How it was run: as §2

rice (Oryza saliva) [15] = test: Test C flooded paddy test; conditions: for Rice plant response rating: Flooded Paddy, scale 0 to 100, 0 no effect, 100 complete control; for Plant response rating, Rice: flooded paddy test, scale 0 to 100 (0 no effect, 100 complete control)
How it was run: as §2

[16] = tested on: barnyardgrass (Echinochloa crus-galli); test: Test B postemergence; conditions: 13 to 15 days
How it was run: as §1

[17] = tested on: giant foxtail (Setaria faberii); test: Test B postemergence; conditions: 13 to 15 days
How it was run: as §1

wild oat (Avena fatua) = test: Test B postemergence; conditions: 13 to 15 days
How it was run: as §1

[18] = tested on: morning glory (Ipomoea hederacea); test: Test B postemergence; conditions: 13 to 15 days
How it was run: as §1

[19] = tested on: wheat (Triticum aestivum); test: Test B postemergence; conditions: 13 to 15 days
How it was run: as §1

[20] = tested on: pigweed (Amaranthus retroflexus); test: Test B postemergence; conditions: 13 to 15 days
How it was run: as §1

[21] = tested on: blackgrass (Alopecurus myosuroides); test: Test B postemergence; conditions: 13 to 15 days
How it was run: as §1

[22] = tested on: Surinam grass (Brachiaria decumbens); test: Test B postemergence; conditions: 13 to 15 days
How it was run: as §1

corn (Zea mays) [23] = test: Test B postemergence; conditions: 13 to 15 days
How it was run: as §1

[24] = tested on: velvetleaf (Abutilon theophrasti); test: Test B postemergence; conditions: 13 to 15 days
How it was run: as §1

[25] = tested on: cocklebur (Xanthium strumarium); test: Test B postemergence; conditions: 13 to 15 days
How it was run: as §1

[26] = tested on: crabgrass (Digitaria sanguinalis); test: Test B postemergence; conditions: 13 to 15 days
How it was run: as §1

[27] = tested on: lambsquarters (Chenopodium album); test: Test B postemergence; conditions: 13 to 15 days
How it was run: as §1

[28] = tested on: barnyardgrass (Echinochloa crus-galli); test: Test B flooded paddy test; conditions: Rate 1000 g/ha, scale of 0 to 100 where 0 is no effect and 100 is complete control, visually evaluated after 13 to 15 days
How it was run: (§3)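 Treatment: formulated chemical applied to flooded paddy plants at 2-leaf stage. Hold: greenhouse, 13–15 days. Scoring: visual comparison to controls, 0 (no effect) to 100 (complete control).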

[29] = tested on: smallflower flatsedge (Cyperus difformis); test: Test B flooded paddy test; conditions: Rate 1000 g/ha, scale of 0 to 100 where 0 is no effect and 100 is complete control, visually evaluated after 13 to 15 days
How it was run: as §3

[30] = tested on: duck salad (Heteranthera limosa); test: Test B flooded paddy test; conditions: Rate 1000 g/ha, scale of 0 to 100 where 0 is no effect and 100 is complete control, visually evaluated after 13 to 15 days
How it was run: as §3

rice (Oryza saliva) [31] = test: Test B flooded paddy test; conditions: Rate 1000 g/ha, scale of 0 to 100 where 0 is no effect and 100 is complete control, visually evaluated after 13 to 15 days
How it was run: as §3

[32] = Preemergence, Rate 500 g/ha, scale 0 to 100, 0 no effect, 100 complete control
[33] = preemergence, Rate 125 g/ha, scale of 0 to 100 where 0 is no effect and 100 is complete control, 13 to 15 days
[34] = Rate 125 g/ha, scale 0 (no effect) to 100 (complete control)
[35] = Rate 500 g/ha, scale 0 to 100, 0 is no effect, 100 is complete control

CCC(C)Oc1ccn(C2CCN(c3cccc(C(F)(F)F)c3)C2=O)n1 (stereo not shown) [Compound 58]
20: Barnyardgrass plant response rating ([12]; Rate 500 g/ha) | Plant response rating, Rice (rice (Oryza saliva) [31])
30: Flatsedge plant response rating ([13]; Rate 500 g/ha)
0: Plant response rating, Barnyardgrass [1, 33] | Plant response rating, Foxtail, Giant [2, 33] | Plant response rating, Morningglory [3, 32] | Plant response rating, Morningglory [3, 33] | Plant response rating, Pigweed [4, 32] | Plant response rating, Pigweed [4, 33] | Plant response rating, Surinam grass [5, 32] | Plant response rating, Surinam grass [5, 33] | Plant response rating, Corn (corn (Zea mays) [6]; [32]) | Plant response rating, Corn (corn (Zea mays) [6]; [33]) | Plant response rating, Velvetleaf [7] | Plant response rating, Cocklebur [8, 32] | Plant response rating, Cocklebur [8, 33] | Plant response rating, Crabgrass [9, 33] | Plant response rating, Rice (rice (Oryza saliva) [10]; [32]) | Plant response rating, Rice (rice (Oryza saliva) [10]; [33]) | Plant response rating, Lambsquarters [11, 32] | Plant response rating, Lambsquarters [11, 33] | Barnyardgrass plant response rating ([12]; Rate 250 g/ha) | Plant response rating, Barnyardgrass ([12]; Rate 62 g/ha) | Plant response rating, Barnyardgrass ([12]; Rate 125 g/ha) | Flatsedge plant response rating ([13]; Rate 250 g/ha) | Plant response rating, Flatsedge ([13]; Rate 62 g/ha) | Plant response rating, Flatsedge ([13]; Rate 125 g/ha) | Ducksalad plant response rating ([14]; Rate 250 g/ha) | Ducksalad plant response rating ([14]; Rate 500 g/ha) | Plant response rating, Ducksalad ([14]; Rate 62 g/ha) | Plant response rating, Ducksalad ([14]; Rate 125 g/ha) | Rice plant response rating (rice (Oryza saliva) [15]; Rate 250 g/ha) | Rice plant response rating (rice (Oryza saliva) [15]; Rate 500 g/ha) | Plant response rating, Rice (rice (Oryza saliva) [15]; Rate 62 g/ha) | Plant response rating, Rice (rice (Oryza saliva) [15]; Rate 125 g/ha) | Plant response rating, Barnyardgrass [16, 34] | Plant response rating, Barnyardgrass [16, 35] | Plant response rating, Foxtail, Giant [17, 34] | Plant response rating, Foxtail, Giant [17, 35] | Plant response rating, Wild Oat (wild oat (Avena fatua); [34]) | Plant response rating, Wild Oat (wild oat (Avena fatua); [35]) | Plant response rating, Morningglory [18, 34] | Plant response rating, Morningglory [18, 35] | Plant response rating, Wheat [19, 34] | Plant response rating, Wheat [19, 35] | Plant response rating, Pigweed [20, 34] | Plant response rating, Pigweed [20, 35] | Plant response rating, Blackgrass [21, 34] | Plant response rating, Blackgrass [21, 35] | Plant response rating, Surinam grass [22, 34] | Plant response rating, Surinam grass [22, 35] | Plant response rating, Corn (corn (Zea mays) [23]; [34]) | Plant response rating, Corn (corn (Zea mays) [23]; [35]) | Plant response rating, Velvetleaf [24, 34] | Plant response rating, Velvetleaf [24, 35] | Plant response rating, Cocklebur [25, 34] | Plant response rating, Cocklebur [25, 35] | Plant response rating, Crabgrass [26, 34] | Plant response rating, Crabgrass [26, 35] | Plant response rating, Lambsquarters [27, 34] | Plant response rating, Lambsquarters [27, 35]
70: Plant response rating, Barnyardgrass [1, 32] | Plant response rating, Foxtail, Giant [2, 32] | Plant response rating, Ducksalad [30]
90: Plant response rating, Barnyardgrass [28]
80: Plant response rating, Crabgrass [9, 32] | Plant response rating, Flatsedge [29]
